Among the test systems are HCC-2998 colon; HT29 colon; IGROV1 ovarian; KM12 colon; MOLT-4 leukemia; OVCAR-4 ovarian; SF-268 CNS; SK-MEL-2 melanoma; SNB-19 CNS.
Holding throughout (test): NCI anticancer screen, dose series, 48 h

Structures are written as SMILES.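 Dose response: 5 concentrations. Exposure: 48 h. Format: 96-well plates. Endpoint: linear interpolation; highest concentration if not reached. Here, GI50 denotes the concentration required for 50% inhibition of growth. TGI marks complete inhibition of growth.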 A value given as a limit tells only on which side of the number the result lay.

The values below come from PubChem BioAssay (NCI).

With `CC(=O)CCC[C@@H](C)[C@@H]1O[C@H]([C@@]2(C)CCC(=O)O2)CC2[C@H]1OC(=O)C21CC1` (some centres not stated), the GI50 with HCC-2998 colon is 77.2 µM; in the test with HT29 colon, above 100 µM; in the test with IGROV1 ovarian, 55 µM; in the test with KM12 colon, above 100 µM; in the test on MOLT-4 leukemia it was 75.5 µM; with OVCAR-4 ovarian it was above 100 µM. The GI50 in the test on SF-268 CNS, with SK-MEL-2 melanoma and with SNB-19 CNS was above 100 µM each time. Moreover, the TGI in the test with HCC-2998 colon, with HT29 colon, with IGROV1 ovarian, in the test on KM12 colon, in the test on MOLT-4 leukemia and with OVCAR-4 ovarian was above 100 µM in each case. The TGI in the test with SF-268 CNS, in the test on SK-MEL-2 melanoma and in the test on SNB-19 CNS was above 100 µM in each case.

Consider `CC(=O)[CH-]C(=O)c1ccccc1.CC(=O)[CH-]C(=O)c1ccccc1.CC[C@H](CCC(C)[C@H]1CCC2[C@@H]3CC=C4C[C@@H]([O-])CC[C@]4(C)C3CC[C@@]21C)C(C)C.CC[C@H](CCC(C)[C@H]1CCC2[C@@H]3CC=C4C[C@@H]([O-])CC[C@]4(C)C3CC[C@@]21C)C(C)C.Cl.[Ti+4]` (some centres not stated), for which the TGI with HCC-2998 colon, in the test on HT29 colon, with IGROV1 ovarian, with KM12 colon, in the test with MOLT-4 leukemia and with OVCAR-4 ovarian was above 25 µM each time. Besides, the TGI in the test with SF-268 CNS, in the test on SK-MEL-2 melanoma and with SNB-19 CNS was above 25 µM each time.

Consider `CC(C)(C)c1cc(Cc2ccc(S(C)(=O)=O)cc2)c(O)c(C(C)(C)C)c1`, for which the TGI in the test with HCC-2998 colon was determined as 29.8 µM; with HT29 colon it was 28.6 µM; in the test with IGROV1 ovarian, 28.3 µM; in the test with KM12 colon, 30.4 µM; in the test with MOLT-4 leukemia, 27.4 µM; in the test with OVCAR-4 ovarian, 28.1 µM. Moreover, the TGI came out at 25.9 µM in the test on SF-268 CNS, 30.4 µM with SK-MEL-2 melanoma and 29 µM in the test on SNB-19 CNS.

As for `CN(C)CC1CCCC/C1=N\OC(=O)c1ccccc1` (configuration not stated), the TGI with HCC-2998 colon, with HT29 colon, in the test on IGROV1 ovarian, in the test with KM12 colon, with MOLT-4 leukemia and in the test on OVCAR-4 ovarian was above 100 µM throughout. Also, the TGI in the test with SF-268 CNS and with SK-MEL-2 melanoma was above 100 µM each time.

As for `Cc1[nH]c2ccccc2c1/C=C/c1c(C)[nH]c2ccccc12`, the TGI in the test on HCC-2998 colon, in the test on HT29 colon, with IGROV1 ovarian, with KM12 colon, in the test on MOLT-4 leukemia and in the test on OVCAR-4 ovarian was above 100 µM throughout. This molecule also showed a TGI in the test with SK-MEL-2 melanoma above 100 µM.

With `[pH]1p2[pH]p3p1p3[pH]2.c1cc[c]([Ge]([c]2ccccc2)[c]2ccccc2)cc1.c1cc[c]([Ge]([c]2ccccc2)[c]2ccccc2)cc1.c1cc[c]([Ge]([c]2ccccc2)[c]2ccccc2)cc1`, the GI50 in the test on HCC-2998 colon was 17 µM; in the test with HT29 colon it was 17.6 µM; with IGROV1 ovarian, 30 µM; in the test on KM12 colon, 15.1 µM; in the test on MOLT-4 leukemia it was 16.3 µM; in the test with OVCAR-4 ovarian it was 25.2 µM. Further, the values for the GI50 in the test on SF-268 CNS, in the test on SK-MEL-2 melanoma and in the test with SNB-19 CNS were 16.4 µM, 19.4 µM and 14.1 µM, respectively. In addition, the TGI in the test with HCC-2998 colon is 31 µM; in the test on HT29 colon, 34 µM; in the test on IGROV1 ovarian, 62.5 µM; with KM12 colon, 33.7 µM; in the test with MOLT-4 leukemia, above 100 µM; with OVCAR-4 ovarian, 56.7 µM. In addition, the TGI worked out at 40.7 µM in the test on SF-268 CNS, 34.9 µM with SK-MEL-2 melanoma and 27.2 µM in the test with SNB-19 CNS.

For the molecule `NC(=S)N/N=C/C(O[C@@H](/C=N/NC(N)=S)CO)n1cnc2c(N)ncnc21` (some centres not stated), the TGI in the test on HCC-2998 colon, in the test on HT29 colon, in the test with IGROV1 ovarian, in the test with KM12 colon, in the test on MOLT-4 leukemia and with OVCAR-4 ovarian was above 100 µM in each case. The TGI in the test on SF-268 CNS and in the test on SNB-19 CNS was above 100 µM each time.

Consider `CCOC(=O)C1(C)C2=CC=C(O2)C(C)(C)C2=CC=C(O2)C(C)(C)C2=CC=C(O2)C(C)(C)C2=CC=C1O2`, for which the TGI with HCC-2998 colon, with HT29 colon, in the test with IGROV1 ovarian, in the test with KM12 colon, in the test on MOLT-4 leukemia and with OVCAR-4 ovarian was above 100 µM in each case. Moreover, the TGI with SF-268 CNS, with SK-MEL-2 melanoma and in the test on SNB-19 CNS was above 100 µM throughout.

Regarding `COc1c(CC(C)=O)c2ccccc2n1C(C)=O`, the TGI in the test with HCC-2998 colon, in the test on HT29 colon, with IGROV1 ovarian, with KM12 colon, in the test on MOLT-4 leukemia and with OVCAR-4 ovarian was above 100 µM each time. The TGI in the test with SK-MEL-2 melanoma and in the test on SNB-19 CNS was above 100 µM in each case.

Regarding `CCCCN(CCCC)CC(C(=O)Nc1ccc([N+](=O)[O-])cc1[N+](=O)[O-])/C(C)=N\NC(=O)c1ccncc1` (configuration not stated), the TGI in the test with HCC-2998 colon, in the test with IGROV1 ovarian, in the test with MOLT-4 leukemia, in the test on OVCAR-4 ovarian, with SF-268 CNS and with SK-MEL-2 melanoma was above 100 µM in each case. In the test with SNB-19 CNS, this molecule came in with a TGI above 100 µM.

In the case of `Nc1nc2c(ncn2C2OC(CO)C(O)C2O)c(=O)o1` (configuration not stated), the TGI in the test with HCC-2998 colon, with HT29 colon, in the test with IGROV1 ovarian, with KM12 colon, in the test with OVCAR-4 ovarian and with SF-268 CNS was above 100 µM throughout. Besides, the TGI in the test on SK-MEL-2 melanoma and with SNB-19 CNS was above 100 µM in each case.

`O=C1C=C(Nc2cc(Cl)ccc2Cl)c2ccccc2C1=O`: the TGI is above 100 µM with HCC-2998 colon; above 100 µM in the test with HT29 colon; above 100 µM in the test on IGROV1 ovarian; 55.7 µM in the test on KM12 colon; above 100 µM in the test on OVCAR-4 ovarian; above 100 µM in the test on SF-268 CNS. Also, the TGI in the test on SK-MEL-2 melanoma was 33.9 µM; with SNB-19 CNS, above 100 µM.

As to `c1ccc(-c2sc(-c3ccccc3)c3c2C(c2ccccc2)c2c(-c4ccccc4)sc(-c4ccccc4)c2C3c2ccccc2)cc1` (configuration not stated), the TGI in the test on HCC-2998 colon, in the test on HT29 colon, in the test on IGROV1 ovarian, with KM12 colon, in the test on OVCAR-4 ovarian and in the test with SF-268 CNS was above 100 µM throughout. For the same molecule, the TGI in the test with SNB-19 CNS was above 100 µM.

Take `Oc1ccc(I)c2cccnc12`: the TGI was above 100 µM in the test with HT29 colon; 39.3 µM with IGROV1 ovarian; above 100 µM in the test with KM12 colon; above 100 µM in the test on MOLT-4 leukemia; above 100 µM with OVCAR-4 ovarian; 72.1 µM in the test on SF-268 CNS. Further, the TGI in the test with SK-MEL-2 melanoma is 71.4 µM; with SNB-19 CNS it was above 100 µM.
